The target of assay [1] is T1, EZH2 within the PRC2 complex (Homo sapiens, UniProt Q15910).
T1 construct: FLAG; made in house; host or cells: Sf9 cells
The experiment in a line: Assay Protocol 1: EZH2 methyltransferase scintillation proximity assay, mononucleosome substrate. It is filed as biochemical. The conditions noted are these: Assay Protocol 1; SPA, 3H-SAM, Histone H3 of mononucleosome purified from HeLa cells; 5-member PRC2 complex; read-out: EZH2 IC50. The procedure: Compounds contained herein were evaluated for their ability to inhibit the methyltransferase activity of EZH2 within the PRC2 complex. […] Mononucleosomes were captured on SPA beads and the resulting signal is read on a ViewLux plate reader. • 1. Prepare 10 mM stock of compounds from solid in 100% DMSO. • 2. […] Dispense 100 nL of compound from the dilution plate into reaction plates (Grenier Bio-One, 384-well, Cat#784075). Prepare the following solutions: • 1. 50 mM Tris-HCl, pH 8: Per 1 L of base buffer, combine 1 M Tris-HCl, pH 8 (50 mL) and distilled water (950 mL). • 2. 1× Assay Buffer: […] SPA Bead Suspension: […] Per 10 mL of 2× Substrate Solution, combine 1× Assay Buffer (9728.55 uL), 800 ug/mL mononucleosomes (125 uL), 1 mM cold SAM (4 uL), and 7.02 uM 3H-SAM (142.45 uL; 0.55 mCi/mL) to provide a final concentration of 5 ug/mL nucleosomes, 0.2 uM cold SAM, and 0.05 uM 3H-SAM. • 6. 2.67× Quench/Bead Mixture: Per 10 mL of 2.67× Quench/Bead Mixture, combine ddH2O (9358 uL), 10 mM cold SAM (267 uL), 40 mg/mL Bead Suspension (375 uL) to provide a final concentration of 100 uM cold SAM and 0.5 mg/mL SPA beads. • 1. Dispense 100 nL/well of 100× Compound to test wells (as noted above). • 2. […] • 1. Dispense 5 uL/well of 1× Assay Buffer to column 18 (low control reactions). • 2. Dispense 5 uL/well of 2× Enzyme Solution to columns 1-17, 19-24. • 3. Spin assay plates for ˜1 minute at 500 rpm. • 4. Stack the assay plates, covering the top plate. • 5. Incubate the compound/DMSO with the enzyme for 30 minutes at room temperature. • 6. Dispense 5 uL/well of 2× Substrate Solution to columns 1-24. • 7. Spin assay plates for ˜1 minute at 500 rpm. • 8. Stack the assay plates, covering the top plate. • 9. Incubate the assay plates at room temperature for 1 hour. • 1. Dispense 5 uL/well of the 3× Quench/Bead Mixture to columns 1-24. • 2. Seal the top of each assay plate with adhesive TopSeal. • 3. Spin assay plates for ˜1 minute at 500 rpm. • 4. […] • 1. Read the assay plates on the Viewlux Plate Reader utilizing the 613 nm emission filter with a 300 s read time. Reagent addition can be done manually or with automated liquid handler. The final DMSO concentration in this assay is 1%. The positive control is in column 6; negative control is in column 18. Final starting concentration of compounds is 100 μM. Percent inhibition was calculated relative to the DMSO control for each compound concentration and the resulting values were fit using standard IC50 fitting parameters within the ABASE data fitting software package.
Background: SPA uses beads or plates that emit light when radiolabelled molecules are held near them.

Assay [2] deals with T1, EZH2 within the PRC2 complex. The experiment in a line: Assay Protocol 2: EZH2 methyltransferase scintillation proximity assay, biotinylated histone H3 peptide substrate. The conditions noted are these: SPA, 3H-SAM, biotinylated unmethylated histone H3K27 peptide substrate, 5-member PRC2 complex. In kind it is biochemical. Put shortly:
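PRC2-complexed EZH2 was run in 50 mM Tris-HCl pH 8, 2 mM MgCl2, 4 mM DTT and 0.001% Tween-20. It was added to a 2× mix of 10 uM biotinylated H3K27 peptide, 0.15 uM 3H-SAM and 2.85 uM cold SAM with streptavidin SPA beads. After 60 min at room temperature and a cold-SAM quench, IC50 was fitted from percent inhibition versus DMSO.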

Structures are written as SMILES. Where a name gives a salt, the structure may show the parent alone.

T1 sequence (Q15910 whole entry): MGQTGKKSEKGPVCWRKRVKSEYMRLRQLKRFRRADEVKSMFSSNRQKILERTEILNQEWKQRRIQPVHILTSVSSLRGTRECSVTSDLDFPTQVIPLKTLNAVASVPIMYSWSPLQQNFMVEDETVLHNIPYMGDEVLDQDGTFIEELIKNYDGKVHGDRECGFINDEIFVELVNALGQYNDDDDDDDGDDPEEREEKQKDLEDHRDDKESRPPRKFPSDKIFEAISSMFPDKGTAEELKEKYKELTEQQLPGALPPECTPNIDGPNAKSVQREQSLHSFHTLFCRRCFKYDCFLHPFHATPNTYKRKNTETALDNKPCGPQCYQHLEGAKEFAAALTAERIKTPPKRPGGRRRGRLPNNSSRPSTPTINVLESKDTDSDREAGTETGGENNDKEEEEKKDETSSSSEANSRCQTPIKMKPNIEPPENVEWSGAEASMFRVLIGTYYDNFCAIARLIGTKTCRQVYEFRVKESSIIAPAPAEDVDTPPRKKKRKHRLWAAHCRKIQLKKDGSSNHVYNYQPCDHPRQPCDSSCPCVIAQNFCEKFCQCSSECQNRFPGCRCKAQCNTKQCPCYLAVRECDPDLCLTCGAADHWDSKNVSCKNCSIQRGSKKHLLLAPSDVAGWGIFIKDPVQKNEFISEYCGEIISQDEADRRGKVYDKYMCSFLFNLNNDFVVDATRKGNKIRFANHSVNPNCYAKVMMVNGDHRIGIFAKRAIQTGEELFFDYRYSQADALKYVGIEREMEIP
T1 sequence (O75530 whole entry partner): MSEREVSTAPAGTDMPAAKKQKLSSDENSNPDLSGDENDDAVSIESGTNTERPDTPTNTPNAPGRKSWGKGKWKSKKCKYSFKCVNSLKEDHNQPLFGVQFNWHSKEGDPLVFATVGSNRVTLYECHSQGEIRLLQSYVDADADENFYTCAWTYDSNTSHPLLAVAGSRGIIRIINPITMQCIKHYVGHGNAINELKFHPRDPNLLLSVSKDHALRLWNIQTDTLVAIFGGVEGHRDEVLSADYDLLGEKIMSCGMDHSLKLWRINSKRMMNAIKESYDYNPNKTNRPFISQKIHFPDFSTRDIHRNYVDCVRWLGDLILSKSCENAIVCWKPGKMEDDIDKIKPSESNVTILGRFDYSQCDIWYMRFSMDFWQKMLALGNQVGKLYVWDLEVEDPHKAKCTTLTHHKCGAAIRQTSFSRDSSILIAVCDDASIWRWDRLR
T1 sequence (Q15022 whole entry partner): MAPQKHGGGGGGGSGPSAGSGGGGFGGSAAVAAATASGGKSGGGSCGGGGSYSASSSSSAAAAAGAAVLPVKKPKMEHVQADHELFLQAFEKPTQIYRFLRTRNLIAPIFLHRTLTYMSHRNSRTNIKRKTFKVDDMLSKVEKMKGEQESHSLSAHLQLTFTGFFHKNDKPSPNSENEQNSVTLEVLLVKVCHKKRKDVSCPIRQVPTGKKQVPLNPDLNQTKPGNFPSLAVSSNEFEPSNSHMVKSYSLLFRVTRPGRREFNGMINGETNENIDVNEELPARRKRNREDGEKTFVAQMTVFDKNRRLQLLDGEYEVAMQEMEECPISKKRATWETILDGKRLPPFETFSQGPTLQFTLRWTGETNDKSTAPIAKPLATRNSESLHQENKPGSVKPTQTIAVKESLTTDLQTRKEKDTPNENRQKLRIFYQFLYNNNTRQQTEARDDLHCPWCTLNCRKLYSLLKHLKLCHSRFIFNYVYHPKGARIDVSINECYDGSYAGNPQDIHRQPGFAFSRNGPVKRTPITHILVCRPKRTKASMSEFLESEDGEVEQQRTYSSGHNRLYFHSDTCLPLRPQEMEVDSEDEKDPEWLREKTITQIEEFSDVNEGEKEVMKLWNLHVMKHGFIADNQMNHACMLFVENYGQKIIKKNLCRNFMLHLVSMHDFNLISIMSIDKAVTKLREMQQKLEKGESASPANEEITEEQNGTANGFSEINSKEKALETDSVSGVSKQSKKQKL
T1 sequence (Q09028 whole entry partner): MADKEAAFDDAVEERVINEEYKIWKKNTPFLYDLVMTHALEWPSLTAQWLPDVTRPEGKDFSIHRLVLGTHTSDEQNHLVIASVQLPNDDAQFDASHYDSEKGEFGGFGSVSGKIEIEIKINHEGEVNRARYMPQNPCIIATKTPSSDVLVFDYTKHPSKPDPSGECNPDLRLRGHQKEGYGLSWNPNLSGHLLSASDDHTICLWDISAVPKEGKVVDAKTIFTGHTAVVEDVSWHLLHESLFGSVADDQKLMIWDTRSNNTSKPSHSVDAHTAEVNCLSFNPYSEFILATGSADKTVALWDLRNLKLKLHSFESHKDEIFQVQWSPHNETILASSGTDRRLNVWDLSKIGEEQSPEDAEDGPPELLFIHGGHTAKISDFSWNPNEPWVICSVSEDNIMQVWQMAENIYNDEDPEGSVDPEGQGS
T1 sequence (Q6ZN18 whole entry partner): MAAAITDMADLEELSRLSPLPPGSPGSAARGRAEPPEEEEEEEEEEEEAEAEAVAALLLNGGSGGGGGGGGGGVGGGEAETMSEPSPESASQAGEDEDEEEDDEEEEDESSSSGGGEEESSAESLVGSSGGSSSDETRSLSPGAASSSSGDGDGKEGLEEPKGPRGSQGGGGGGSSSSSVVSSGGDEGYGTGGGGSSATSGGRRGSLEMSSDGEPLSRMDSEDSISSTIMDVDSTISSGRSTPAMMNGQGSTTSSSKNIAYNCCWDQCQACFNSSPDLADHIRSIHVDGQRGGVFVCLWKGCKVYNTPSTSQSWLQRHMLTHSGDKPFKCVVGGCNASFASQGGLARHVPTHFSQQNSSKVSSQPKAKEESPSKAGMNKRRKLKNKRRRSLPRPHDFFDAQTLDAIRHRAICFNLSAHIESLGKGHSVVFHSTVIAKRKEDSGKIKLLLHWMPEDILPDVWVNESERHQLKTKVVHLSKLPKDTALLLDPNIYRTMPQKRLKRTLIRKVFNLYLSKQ

Consider `CCN(c1cccc2c1CC=CCOCc1cc(C)[nH]c(=O)c1CNC2=O)C1CCOCC1` (racemic) [Example 12, (E)- and (Z)-11-(ethyl(tetrahydro-2H-pyran-4-yl)amino)-3-methyl-7,10,16,17-tetrahydrobenzo[h]pyrido[4,3-c][1,6]oxaazacyclotridecine-1,15(2H,5H)-dione], for which the results for the concentration for half-maximal inhibition (IC50) in assay [1] and in assay [2] were 126 nM and 200 nM, respectively. In the same order, the values of `Cc1cc2c(c(=O)[nH]1)CNC(=O)c1cc(Cl)cc(O[C@H]3CC[C@H](N)CC3)c1C/C=C/CC2` [Example 1, (E)-10-((trans-4-aminocyclohexyl)oxy)-12-chloro-3-methyl-5,6,15,16-tetrahydrobenzo[c]pyrido[4,3-j][1]azacyclododecine-1,14(2H,9H)-dione hydrochloride] are 32 nM and 100 nM. In the same order, the values of `Cc1cc2c(c(=O)[nH]1)CNC(=O)c1cc(Cl)cc(O[C@H]3CC[C@H](N(C)C)CC3)c1C/C=C/CC2` [Example 2, (E)-12-chloro-10-((trans-4-(dimethylamino)cyclohexyl)oxy)-3-methyl-5,6,15,16-tetrahydrobenzo[c]pyrido[4,3-j][1]azacyclododecine-1,14(2H,9H)-dione] are 25 nM and 126 nM. Take `Cc1cc2c(c(=O)[nH]1)CNC(=O)c1cc(Cl)cc(O[C@H]3CC[C@H](N(C)C)CC3)c1CCCCC2` [Example 3, 12-chloro-10-((trans-4-(dimethylamino)cyclohexyl)oxy)-3-methyl-6,7,8,9,15,16-hexahydrobenzo[c]pyrido[4,3-j][1]azacyclododecine-1,14(2H,5H)-dione]: the IC50 was determined as 100 nM in assay [1] and 158 nM in assay [2].

Take `CCN(c1cccc2c1C/C=C/CCc1cc(C)[nH]c(=O)c1CNC2=O)C1CCOCC1` [Example 6, (E)-10-(ethyl(tetrahydro-2H-pyran-4-yl)amino)-3-methyl-5,6,15,16-tetrahydrobenzo[c]pyrido[4,3-j][1]azacyclododecine-1,14(2H,9H)-dione hydrochloride, 0.10 1,4-dioxane solvate]: the values for the 50% inhibitory concentration (IC50) in assay [1] and in assay [2] were 100 nM and 158 nM, respectively. For `Cc1cc2c(c(=O)[nH]1)CNC(=O)c1cc(Cl)cc(O[C@H]3CC[C@H](N(C)C)CC3)c1C/C=C/CCC2` [Example 8, (E)-13-chloro-11-((trans-4-(dimethylamino)cyclohexyl)oxy)-3-methyl-5,6,7,10,16,17-hexahydro-1H-benzo[c]pyrido[4,3-k][1]azacyclotridecine-1,15(2H)-dione], in that order: 63 nM and 251 nM. For `CCN(c1cccc2c1C/C=C/CCc1cc(C)[nH]c(=O)c1CN(C)C2=O)C1CCOCC1` [Example 9, (E)-10-(ethyl(tetrahydro-2H-pyran-4-yl)amino)-3,15-dimethyl-5,6,15,16-tetrahydrobenzo[c]pyrido[4,3-j][1]azacyclododecine-1,14(2H,9H)-dione], in that order: 79 nM and 126 nM. As for `CCN(c1cccc2c1C/C=C/CCCCc1cc(C)[nH]c(=O)c1CNC2=O)C1CCOCC1` [Example 14, (E)-12-(ethyl(tetrahydro-2H-pyran-4-yl)amino)-3-methyl-5,6,7,8,17,18-hexahydrobenzo[c]pyrido[4,3-l][1]azacyclotetradecine-1,16(2H,11H)-dione hydrochloride], the IC50 was 50 nM in assay [1] and 158 nM in assay [2]. `CCN(c1cc(Cl)cc2c1C/C=C\CCc1cc(C)[nH]c(=O)c1CNC2=O)C1CCOCC1` [Example 16, (Z)-12-chloro-10-(ethyl(tetrahydro-2H-pyran-4-yl)amino)-3-methyl-5,6,15,16-tetrahydrobenzo[c]pyrido[4,3-j][1]azacyclododecine-1,14(2H,9H)-dione hydrochloride]: the IC50 in assay [1] was 501 nM. In the case of `CCN(c1cc(Cl)cc2c1C/C=C/CCc1cc(C)[nH]c(=O)c1CNC2=O)C1CCOCC1` [Example 17, (E)-12-chloro-10-(ethyl(tetrahydro-2H-pyran-4-yl)amino)-3-methyl-5,6,15,16-tetrahydrobenzo[c]pyrido[4,3-j][1]azacyclododecine-1,14(2H,9H)-dione], the half-maximal inhibitory concentration (IC50) was 32 nM in assay [1] and 126 nM in assay [2].

Turning to `Cc1cc2c(c(=O)[nH]1)CNC(=O)c1cc(Cl)cc(OC(C)C)c1C/C=C/CC2` [Example 18, (E)-12-chloro-10-isopropoxy-3-methyl-5,6,15,16-tetrahydrobenzo[c]pyrido[4,3-j][1]azacyclododecine-1,14(2H,9H)-dione], the half-inhibitory concentration (IC50) was 100 nM in assay [1] and 316 nM in assay [2].

For the molecule `CCN(c1cccc2c1C/C=C\CC(C)c1cc(C)[nH]c(=O)c1CNC2=O)C1CCOCC1` (centres unmarked) [Example 22, (Z)-10-(ethyl(tetrahydro-2H-pyran-4-yl)amino)-3,5-dimethyl-5,6,15,16-tetrahydrobenzo[c]pyrido[4,3-j][1]azacyclododecine-1,14(2H,9H)-dione], in assay [1], the IC50 was determined as 6310 nM. Still for that read-out and setting: in the case of `CCN(c1cccc2c1C/C=C/CC(C)c1cc(C)[nH]c(=O)c1CNC2=O)C1CCOCC1` (centres unmarked) [Example 23, (E)-10-(ethyl(tetrahydro-2H-pyran-4-yl)amino)-3,5-dimethyl-5,6,15,16-tetrahydrobenzo[c]pyrido[4,3-j][1]azacyclododecine-1,14(2H,9H)-dione] it was 126 nM; in that of `CCN(c1cccc2c1CCCCC(C)c1cc(C)[nH]c(=O)c1CNC2=O)C1CCOCC1` (centres unmarked) [Example 24, 10-(ethyl(tetrahydro-2H-pyran-4-yl)amino)-3,5-dimethyl-6,7,8,9,15,16-hexahydrobenzo[c]pyrido[4,3-j][1]azacyclododecine-1,14(2H,5H)-dione], 631 nM. The same measure, in the same setting: in the case of `CCN(c1cccc2c1C/C=C/C(CO)Cc1cc(C)[nH]c(=O)c1CNC2=O)C1CCOCC1` (centres unmarked) [Example 25, (E)-10-(ethyl(tetrahydro-2H-pyran-4-yl)amino)-6-(hydroxymethyl)-3-methyl-5,6,15,16-tetrahydrobenzo[c]pyrido[4,3-j][1]azacyclododecine-1,14(2H,9H)-dione] it was 158 nM; in that of `CCN(c1cccc2c1C/C=C\C(CO)Cc1cc(C)[nH]c(=O)c1CNC2=O)C1CCOCC1` (centres unmarked) [Example 26, (Z)-10-(ethyl(tetrahydro-2H-pyran-4-yl)amino)-6-(hydroxymethyl)-3-methyl-5,6,15,16-tetrahydrobenzo[c]pyrido[4,3-j][1]azacyclododecine-1,14(2H,9H)-dione], 12600 nM. In the case of `CCN(c1cccc2c1CCCC(CO)Cc1cc(C)[nH]c(=O)c1CNC2=O)C1CCOCC1` (centres unmarked) [Example 27, 10-(ethyl(tetrahydro-2H-pyran-4-yl)amino)-6-(hydroxymethyl)-3-methyl-6,7,8,9,15,16-hexahydrobenzo[c]pyrido[4,3-j][1]azacyclododecine-1,14(2H,5H)-dione], the IC50 in assay [1] was determined as 316 nM. Still for that read-out and setting: next, `CCN(c1cccc2c1CCCC(O)CCc1cc(C)[nH]c(=O)c1CNC2=O)C1CCOCC1` (centres unmarked) [Example 28, 11-(ethyl(tetrahydro-2H-pyran-4-yl)amino)-7-hydroxy-3-methyl-5,6,7,8,9,10,16,17-octahydro-1H-benzo[c]pyrido[4,3-k][1]azacyclotridecine-1,15(2H)-dione]: 631 nM; `CCN(c1cccc2c1C/C=C/CCc1cc(C)[nH]c(=O)c1CN(CCO)C2=O)C1CCOCC1` [Example 29, (E)-10-(ethyl(tetrahydro-2H-pyran-4-yl)amino)-15-(2-hydroxyethyl)-3-methyl-5,6,15,16-tetrahydrobenzo[c]pyrido[4,3-j][1]azacyclododecine-1,14(2H,9H)-dione]: 1260 nM.

For orientation: IC50 means the midpoint of a concentration-inhibition curve.

(Values after patent US20160122342A1, “ENHANCER OF ZESTE HOMOLOG 2 INHIBITORS” (GLAXOSMITHKLINE INTELLECTUAL PROPERTY (NO.2) LIMITED, priority 2013, published 2016).)
